Reference: ChEMBL document CHEMBL1201862, “PubChem BioAssay data set” (2004)
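Exposure lasted 48 hours, with cells grown in 96-well plates and compounds tested at five concentrations. Here, GI50 denotes the concentration required for 50% inhibition of growth.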 Calls of active or inactive are those of the source. No stated cut-off is given here; in the data, active = GI50 up to about 1.1 µM and inactive = higher.

Columns and labels:
Assay in all cases: NCI-60 cell line screen, 48 h
A549 = system: A549
CAKI-1 = system: CAKI-1
HCC 2998 = system: HCC 2998
HL-60 = system: HL-60
HOP-62 = system: HOP-62
HOP-92 = system: HOP-92
HT-29 = system: HT-29
M14 = system: M14
MDA-MB-231 = system: MDA-MB-231
MDA-MB-435 = system: MDA-MB-435
MDA-N = system: MDA-N
NCI-H460 = system: NCI-H460
NCI-H522 = system: NCI-H522
SF-268 = system: SF-268
SF-539 = system: SF-539
SK-MEL-2 = system: SK-MEL-2
SK-MEL-5 = system: SK-MEL-5
SNB-75 = system: SNB-75
U-251 = system: U-251
UO-31 = system: UO-31

| SMILES | GI50 (A549) | GI50 (CAKI-1) | GI50 (HCC 2998) | GI50 (HL-60) | GI50 (HOP-62) | GI50 (HOP-92) | GI50 (HT-29) | GI50 (M14) | GI50 (MDA-MB-231) | GI50 (MDA-MB-435) | GI50 (MDA-N) | GI50 (NCI-H460) | GI50 (NCI-H522) | GI50 (SF-268) | GI50 (SF-539) | GI50 (SK-MEL-2) | GI50 (SK-MEL-5) | GI50 (SNB-75) | GI50 (U-251) | GI50 (UO-31) |
| --- | --- | --- | --- | --- | --- | --- | --- | --- | --- | --- | --- | --- | --- | --- | --- | --- | --- | --- | --- | --- |
| CC(C)(C)C(O)CC(O)(C(F)(F)F)C(F)(F)F (stereo not given) | > 100 µM (inactive) | > 100 µM (inactive) | > 100 µM (inactive) | > 100 µM (inactive) | > 100 µM (inactive) | > 100 µM (inactive) | > 100 µM (inactive) | > 100 µM (inactive) | > 100 µM (inactive) | > 100 µM (inactive) | > 100 µM (inactive) | > 100 µM (inactive) | > 100 µM (inactive) | > 100 µM (inactive) | > 100 µM (inactive) | > 100 µM (inactive) | > 100 µM (inactive) | 56.9 µM (inactive) | > 100 µM (inactive) | > 100 µM (inactive) |
| CC(=O)NC1C(OCc2ccccc2)OC(CO)C(O)C1OC(C)C(=O)NC(C)C(=O)NC(CCC(=O)NCCCCNc1c2ccccc2nc2cccc([N+](=O)[O-])c12)C(N)=O (stereo not given) | 0.0404 µM (active) | 0.0325 µM (active) | 0.013 µM (active) | 0.027 µM (active) | 0.0791 µM (active) | 0.0176 µM (active) | 0.00514 µM (active) | 0.277 µM (active) | 0.0237 µM (active) | 0.0325 µM (active) | 0.0232 µM (active) | 0.00445 µM (active) | 0.0705 µM (active) | 0.0357 µM (active) | 0.0512 µM (active) | 0.0944 µM (active) | 0.0356 µM (active) | 0.18 µM (active) | 0.042 µM (active) | 0.0738 µM (active) |
| O=c1cc(/C=C/c2ccc(O)c(O)c2)oc(/C=C/c2ccc(O)c(O)c2)c1 | 13.4 µM (inactive) | 3.37 µM (inactive) | 2.49 µM (inactive) | – | 7.53 µM (inactive) | 2.48 µM (inactive) | 7.91 µM (inactive) | 4.52 µM (inactive) | 4.44 µM (inactive) | 1.43 µM (inactive) | 2.24 µM (inactive) | 5.02 µM (inactive) | 1.24 µM (inactive) | 2.17 µM (inactive) | 2.75 µM (inactive) | 2.65 µM (inactive) | 3.19 µM (inactive) | 4.41 µM (inactive) | 2.74 µM (inactive) | 4.66 µM (inactive) |
| C=C(C)[C@H]1C=C[C@@H](OC(=O)c2cccnc2)[C@@]23CO[C@@](C)([C@H](OC(=O)c4cccnc4)[C@@]4(OC(C)=O)C[C@H](C)[C@H](OCCC)[C@@H]4[C@H]2OC(C)=O)[C@H]13 | – | > 15 µM (inactive) | > 15 µM (inactive) | 3.35 µM (inactive) | 10.9 µM (inactive) | > 15 µM (inactive) | – | 12.7 µM (inactive) | > 15 µM (inactive) | 9.68 µM (inactive) | 10.7 µM (inactive) | 4.94 µM (inactive) | > 15 µM (inactive) | > 15 µM (inactive) | > 15 µM (inactive) | > 15 µM (inactive) | > 15 µM (inactive) | 3.82 µM (inactive) | > 15 µM (inactive) | > 15 µM (inactive) |
| O=Cc1ccc(-c2nccc3c2[nH]c2ccccc23)o1 | 73.1 µM (inactive) | 4.91 µM (inactive) | > 91.6 µM (inactive) | 74.8 µM (inactive) | 42.8 µM (inactive) | 44.6 µM (inactive) | > 88.1 µM (inactive) | 91.6 µM (inactive) | > 85.1 µM (inactive) | > 100 µM (inactive) | > 100 µM (inactive) | 38.9 µM (inactive) | 64.4 µM (inactive) | > 100 µM (inactive) | > 100 µM (inactive) | > 95.5 µM (inactive) | 82.2 µM (inactive) | > 100 µM (inactive) | 68.9 µM (inactive) | > 100 µM (inactive) |
| Clc1cccc(/C=N/C23CC4CC(CC(C4)C2)C3)c1Cl | > 10 µM (inactive) | > 10 µM (inactive) | > 10 µM (inactive) | 6.28 µM (inactive) | > 10 µM (inactive) | > 10 µM (inactive) | > 10 µM (inactive) | > 10 µM (inactive) | > 10 µM (inactive) | > 10 µM (inactive) | > 10 µM (inactive) | > 10 µM (inactive) | > 10 µM (inactive) | > 10 µM (inactive) | > 10 µM (inactive) | > 10 µM (inactive) | > 10 µM (inactive) | 5.36 µM (inactive) | > 10 µM (inactive) | – |
| Brc1ccc2c(-c3nc(-c4c[nH]c5ccc(Br)cc45)cs3)c[nH]c2c1 | 4.14 µM (inactive) | 4.03 µM (inactive) | 2.48 µM (inactive) | 6.43 µM (inactive) | 11.7 µM (inactive) | 3.44 µM (inactive) | 1.86 µM (inactive) | 3.92 µM (inactive) | 3.69 µM (inactive) | 5.26 µM (inactive) | 4.45 µM (inactive) | 2.68 µM (inactive) | 1.95 µM (inactive) | 4.82 µM (inactive) | 5.06 µM (inactive) | 6.25 µM (inactive) | 4.51 µM (inactive) | 14.5 µM (inactive) | 4.43 µM (inactive) | 4.1 µM (inactive) |
| NNC(=O)CCCCCCCC(=O)O | > 100 µM (inactive) | > 100 µM (inactive) | > 100 µM (inactive) | > 100 µM (inactive) | > 100 µM (inactive) | > 100 µM (inactive) | > 100 µM (inactive) | > 100 µM (inactive) | > 100 µM (inactive) | > 100 µM (inactive) | > 100 µM (inactive) | > 100 µM (inactive) | > 100 µM (inactive) | – | > 100 µM (inactive) | > 100 µM (inactive) | > 100 µM (inactive) | > 100 µM (inactive) | > 100 µM (inactive) | > 100 µM (inactive) |
| C=C(C)[C@@H]1CC[C@]2(C(=O)O)CC[C@]3(C)[C@H](CC[C@@H]4[C@@]5(C)CC[C@H](O)C(C)(C)[C@@H]5CC[C@]43C)[C@@H]12 [BETULINIC ACID] | 4.88 µM (inactive) | 11.6 µM (inactive) | 6.31 µM (inactive) | 2.97 µM (inactive) | 8.36 µM (inactive) | 3.27 µM (inactive) | 8.24 µM (inactive) | 10.3 µM (inactive) | 3.91 µM (inactive) | 13.7 µM (inactive) | 16.7 µM (inactive) | 7.28 µM (inactive) | 3.21 µM (inactive) | 7.6 µM (inactive) | 4.03 µM (inactive) | 12.4 µM (inactive) | 4.19 µM (inactive) | 8.87 µM (inactive) | 5.53 µM (inactive) | 11 µM (inactive) |
| CCOC(=O)Cn1sc2ncc([N+](=O)[O-])cc2c1=O | 19.3 µM (inactive) | – | 16.4 µM (inactive) | 8.15 µM (inactive) | 15.4 µM (inactive) | 13.3 µM (inactive) | 16.2 µM (inactive) | – | 15.7 µM (inactive) | 16.2 µM (inactive) | 12.4 µM (inactive) | 17.1 µM (inactive) | 18.8 µM (inactive) | 24.5 µM (inactive) | 19.5 µM (inactive) | 22.2 µM (inactive) | 27.5 µM (inactive) | 39.5 µM (inactive) | – | 10.1 µM (inactive) |
| Cc1[nH]c(-c2ccccc2)c2nc(N(C)C)oc(=O)c12 | > 100 µM (inactive) | 0.212 µM (active) | > 100 µM (inactive) | > 100 µM (inactive) | > 100 µM (inactive) | > 100 µM (inactive) | > 100 µM (inactive) | > 100 µM (inactive) | > 100 µM (inactive) | > 100 µM (inactive) | > 100 µM (inactive) | > 100 µM (inactive) | > 100 µM (inactive) | > 100 µM (inactive) | > 100 µM (inactive) | > 100 µM (inactive) | > 100 µM (inactive) | > 100 µM (inactive) | > 100 µM (inactive) | > 100 µM (inactive) |
| CCCCC(=O)OC[n+]1ccc2c(C)c3[nH]c4ccc(OC)cc4c3c(C)c2c1 | 0.308 µM (active) | 1.02 µM (active) | 0.512 µM (active) | 0.422 µM (active) | 0.47 µM (active) | 1.23 µM (inactive) | 0.243 µM (active) | 1.04 µM (active) | 0.185 µM (active) | 0.461 µM (active) | 0.321 µM (active) | 0.0736 µM (active) | 0.695 µM (active) | 0.344 µM (active) | 0.367 µM (active) | 2.32 µM (inactive) | 1.22 µM (inactive) | 1.07 µM (active) | 0.348 µM (active) | 1.04 µM (active) |
| COC(=O)c1ccc(NCc2cc(O)c3ccccc3c2O)cc1 | 10.8 µM (inactive) | 6.17 µM (inactive) | 21.9 µM (inactive) | 3.3 µM (inactive) | 14.4 µM (inactive) | 2.55 µM (inactive) | 18.7 µM (inactive) | – | 2.17 µM (inactive) | 2.11 µM (inactive) | 2.15 µM (inactive) | 7.31 µM (inactive) | 16.1 µM (inactive) | 22.4 µM (inactive) | 15.3 µM (inactive) | 18.2 µM (inactive) | 1.51 µM (inactive) | 22.5 µM (inactive) | 16.7 µM (inactive) | 13.1 µM (inactive) |
| CCOC(=O)CCC(NC(=O)c1ccc(Oc2nc3c(N)cc(C(F)(F)F)cc3nc2-c2ccccc2)cc1)C(=O)OCC (stereo not given) | 7.78 µM (inactive) | 2.82 µM (inactive) | 67.8 µM (inactive) | 38.8 µM (inactive) | 6.98 µM (inactive) | 56.8 µM (inactive) | 2.43 µM (inactive) | 47 µM (inactive) | 19 µM (inactive) | 59.8 µM (inactive) | 63.1 µM (inactive) | 54.3 µM (inactive) | 5.96 µM (inactive) | 13.8 µM (inactive) | 1.67 µM (inactive) | – | 17.6 µM (inactive) | 5.05 µM (inactive) | 32.6 µM (inactive) | 70 µM (inactive) |
